{"source": "patent US8822503B2", "about": "“2-pyridone compounds” (Taisho Pharmaceutical Co., Ltd, priority 2009, dated 2014)"}
{"target": "T1, human liver GK (Homo sapiens, UniProt P35557)", "T1 construct": "GST (glutathione S-transferase) (N); made in house; host or cells: E. coli", "T1 sequence (P35557 1-466 isoform P35557-2)": "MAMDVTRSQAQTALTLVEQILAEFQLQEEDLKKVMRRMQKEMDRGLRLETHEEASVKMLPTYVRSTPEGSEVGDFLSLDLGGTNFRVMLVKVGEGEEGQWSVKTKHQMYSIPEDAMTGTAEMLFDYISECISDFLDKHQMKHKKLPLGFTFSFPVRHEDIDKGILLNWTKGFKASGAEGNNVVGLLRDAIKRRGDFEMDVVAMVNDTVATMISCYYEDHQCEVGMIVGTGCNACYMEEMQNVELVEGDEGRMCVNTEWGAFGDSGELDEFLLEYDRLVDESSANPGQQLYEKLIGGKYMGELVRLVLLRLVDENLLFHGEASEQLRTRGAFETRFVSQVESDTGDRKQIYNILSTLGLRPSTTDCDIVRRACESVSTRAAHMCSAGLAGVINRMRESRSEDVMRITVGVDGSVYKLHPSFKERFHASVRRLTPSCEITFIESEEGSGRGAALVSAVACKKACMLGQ", "assay": "GK activation test", "type": "biochemical", "conditions": "test compound concentration needed to activate 50% of maximum activation ability; 4 mM 14C-labeled glucose, 2 mM ATP, room temperature, 20 minutes", "description": "The GK activation test for the test compounds was performed by the method of Irwin A. Rose et al. (J. Biol. Chem. 1964 January; 239:12-7) with partial modifications.\nThe enzyme source used in this assay, human liver GK, was expressed in E. coli as a fusion protein with GST (glutathione S-transferase) added to the amino terminus and was purified using Glutathione Sepharose 4B (Amersham Biosciences).\nThe test was carried out using flat-bottom 96-well plates (Sumitomo Bakelite Co., Ltd.). A solution of the test compound in dimethyl sulfoxide (DMSO) and DMSO as a control were added to each well of the plates at a final DMSO concentration of 1%. 25 mM Hepes-KOH (pH=7.1), 25 mM KCl, 2 mM MgCl2, 2 mM ATP, 4 mM ^14C-labeled glucose (Muromachi Yakuhin) and 1 mM DTT (dithiothreitol) were further added at the indicated final concentrations, respectively. Finally, human liver GK was added at 0.24 microgram per well and the reaction was started. The reaction was carried out at room temperature.\nAfter 20 minutes, AG1-X4 resin (BioRad) suspended in 25 mM Hepes-KOH (pH=7.1) was added and the reaction product, labeled glucose 6-phosphate, was allowed to bind thereto. The whole volume was transferred to MultiScreen plates (Millipore) and the resin was washed with water. Thereafter, the labeled glucose 6-phosphate binding to the resin was eluted with a 0.5 M NaCl solution. The labeling activity of the eluted labeled glucose 6-phosphate was measured as an index of GK activity.\nThe GK activity maximally activated by the test compound was described as maximum activation ability, and the test compound concentration needed to activate 50% of that ability was described as EC50.", "units": {"EC50": "µM"}}
{"smiles": "CSc1ccc([C@]2(c3ccc(C)c(=O)[nH]3)C[C@@H]2C2CCCC2)cc1Cl", "note": "(relative stereo) [Example 3-1, trans-6-{-1-[3-Chloro-4-(methylsulfanyl)phenyl]-2-cyclopentylcyclopropyl}-3-methylpyridin-2(1H)-one]", "EC50": "0.5 to 3"}
{"smiles": "Cc1ccc([C@@]2(c3ccc(S(C)(=O)=O)c(Cl)c3)C[C@@H]2C2CCCC2)[nH]c1=O", "note": "(relative stereo) [Example 3-2, trans-6-{1-[3-Chloro-4-(methylsulfonyl)phenyl]-2-cyclopentylcyclopropyl}-3-methylpyridin-2(1H)-one]", "EC50": "0.5 to 3"}
{"smiles": "CSc1ccc([C@]2(c3ccc(C)c(=O)[nH]3)C[C@@H]2C2CCCC2)cc1", "note": "(relative stereo) [Example 3-3, trans-6-{2-Cyclopentyl-1-[4-(methylsulfanyl)phenyl]cyclopropyl}-3-methylpyridin-2(1H)-one]", "EC50": "0.5 to 3"}
{"smiles": "Cc1ccc([C@@]2(c3ccc(S(C)(=O)=O)cc3)C[C@@H]2C2CCCC2)[nH]c1=O", "note": "(relative stereo) [Example 3-4, trans-6-{2-Cyclopentyl-1-[4-(methylsulfonyl)phenyl]cyclopropyl}-3-methylpyridin-2(1H)-one]", "EC50": "3 to 10"}
{"smiles": "CC(C)(C)c1ccc(C(C[C@H]2CCC(=O)N2)c2ccc(Cl)c(=O)[nH]2)cc1", "note": "(single isomer, unassigned) [Example 4-69]", "EC50": "3 to 10"}
{"smiles": "CC(C)(C)c1ccc(C(C[C@H]2CCC(=O)N2)c2ccc(Cl)c(=O)[nH]2)cc1", "note": "(single isomer, unassigned) [Example 4-70]", "EC50": "0.5 to 3"}
{"smiles": "CC(C)(C)c1ccc(C(C[C@@H]2CCC(=O)N2)c2ccc(Cl)c(=O)[nH]2)cc1", "note": "(single isomer, unassigned) [Example 4-76]", "EC50": "3 to 10"}
{"smiles": "CC(C)(C)c1ccc(C(C[C@@H]2CCC(=O)N2)c2ccc(Cl)c(=O)[nH]2)cc1", "note": "(single isomer, unassigned) [Example 4-77]", "EC50": "3 to 10"}
{"smiles": "CC(C)c1ccc(C(C[C@H]2CCC(=O)N2)c2ccc(Cl)c(=O)[nH]2)cc1", "note": "(single isomer, unassigned) [Example 4-85]", "EC50": "0.5 to 3"}
{"smiles": "CC(C)c1ccc(C(C[C@H]2CCC(=O)N2)c2ccc(Cl)c(=O)[nH]2)cc1Cl", "note": "(single isomer, unassigned) [Example 4-86]", "EC50": "0.01 to 0.5"}
{"smiles": "CCOc1ccc(C(C[C@H]2CCC(=O)N2)c2ccc(C3CC3)c(=O)[nH]2)cc1Cl", "note": "(single isomer, unassigned) [Example 4-87]", "EC50": "0.01 to 0.5"}
{"smiles": "CC(C)(C)c1ccc(C(C[C@H]2CCN(C(=O)C3CC3)C2)c2ccc(Cl)c(=O)[nH]2)cc1", "note": "(single isomer, unassigned) [Example 4-96]", "EC50": "0.01 to 0.5"}
{"smiles": "CC(C)(C)c1ccc(C(C[C@H]2CCN(C(=O)C3CC3)C2)c2ccc(Cl)c(=O)[nH]2)cc1", "note": "(single isomer, unassigned) [Example 4-97]", "EC50": "3 to 10"}
{"smiles": "O=C1CC[C@H](CC(c2ccc3c(c2)CCO3)c2ccc(C3CC3)c(=O)[nH]2)N1", "note": "(single isomer, unassigned) [Example 4-209]", "EC50": "0.5 to 3"}
{"smiles": "O=C1CC[C@H](CC(c2ccc(F)c(Cl)c2)c2ccc(C3CC3)c(=O)[nH]2)N1", "note": "(single isomer, unassigned) [Example 4-211]", "EC50": "0.5 to 3"}
{"smiles": "Cc1cc(C(C[C@H]2CCC(=O)N2)c2ccc(C3CC3)c(=O)[nH]2)ccc1Cl", "note": "(single isomer, unassigned) [Example 4-213]", "EC50": "0.5 to 3"}
{"smiles": "Cc1cc(C(C[C@H]2CCC(=O)N2)c2ccc(C3CC3)c(=O)[nH]2)ccc1Cl", "note": "(single isomer, unassigned) [Example 4-214]", "EC50": "3 to 10"}
{"smiles": "Cc1ccc(C(C[C@H]2CCC(=O)N2)c2ccc(C3CC3)c(=O)[nH]2)cc1Cl", "note": "(single isomer, unassigned) [Example 4-215]", "EC50": "0.01 to 0.5"}
{"smiles": "Cc1ccc(C(C[C@H]2CCC(=O)N2)c2ccc(C3CC3)c(=O)[nH]2)cc1Cl", "note": "(single isomer, unassigned) [Example 4-216]", "EC50": "3 to 10"}
{"smiles": "O=C1CC[C@H](CC(c2ccc(Cl)c(F)c2)c2ccc(C3CC3)c(=O)[nH]2)N1", "note": "(single isomer, unassigned) [Example 4-217]", "EC50": "0.5 to 3"}
{"smiles": "O=C1CC[C@H](CC(c2ccc(C(F)(F)F)c(F)c2)c2ccc(C3CC3)c(=O)[nH]2)N1", "note": "(single isomer, unassigned) [Example 4-219]", "EC50": "0.5 to 3"}
{"smiles": "O=C1CC[C@H](CC(c2ccc(Cl)c(C(F)(F)F)c2)c2ccc(C3CC3)c(=O)[nH]2)N1", "note": "(single isomer, unassigned) [Example 4-221]", "EC50": "0.5 to 3"}
{"smiles": "O=C1CC[C@H](CC(c2ccc(Cl)c(C(F)(F)F)c2)c2ccc(C3CC3)c(=O)[nH]2)N1", "note": "(single isomer, unassigned) [Example 4-222]", "EC50": "3 to 10"}
{"smiles": "Cc1cc(C(C[C@H]2CCC(=O)N2)c2ccc(C3CC3)c(=O)[nH]2)ccc1F", "note": "(single isomer, unassigned) [Example 4-223]", "EC50": "0.5 to 3"}
{"smiles": "Cc1cc(C(C[C@H]2CCC(=O)N2)c2ccc(C3CC3)c(=O)[nH]2)ccc1F", "note": "(single isomer, unassigned) [Example 4-224]", "EC50": "3 to 10"}
{"smiles": "O=C1CC[C@H](CC(c2ccc(C(F)F)c(Cl)c2)c2ccc(C3CC3)c(=O)[nH]2)N1", "note": "(single isomer, unassigned) [Example 4-225]", "EC50": "0.01 to 0.5"}
{"smiles": "O=C1CC[C@H](CC(c2ccc(C(F)F)c(Cl)c2)c2ccc(C3CC3)c(=O)[nH]2)N1", "note": "(single isomer, unassigned) [Example 4-226]", "EC50": "3 to 10"}
{"smiles": "COc1cc(C(C[C@H]2CCC(=O)N2)c2ccc(C3CC3)c(=O)[nH]2)ccc1Cl", "note": "(single isomer, unassigned) [Example 4-227]", "EC50": "0.5 to 3"}
{"smiles": "O=C1CC[C@H](CC(c2ccc(OC(F)F)cc2)c2ccc(C3CC3)c(=O)[nH]2)N1", "note": "(single isomer, unassigned) [Example 4-229]", "EC50": "0.5 to 3"}
{"smiles": "O=C1CC[C@H](CC(c2ccc(OC(F)F)cc2)c2ccc(C3CC3)c(=O)[nH]2)N1", "note": "(single isomer, unassigned) [Example 4-230]", "EC50": "3 to 10"}
{"smiles": "Cc1cc(C(C[C@H]2CCC(=O)N2)c2ccc(C3CC3)c(=O)[nH]2)ccc1C(F)F", "note": "(single isomer, unassigned) [Example 4-231]", "EC50": "0.01 to 0.5"}
{"smiles": "Cc1cc(C(C[C@H]2CCC(=O)N2)c2ccc(C3CC3)c(=O)[nH]2)ccc1C(F)F", "note": "(single isomer, unassigned) [Example 4-232]", "EC50": "3 to 10"}
{"smiles": "O=C1CC[C@H](CC(c2ccc(C(F)F)c(F)c2)c2ccc(C3CC3)c(=O)[nH]2)N1", "note": "(single isomer, unassigned) [Example 4-233]", "EC50": "0.5 to 3"}
{"smiles": "O=C1CC[C@H](CC(c2ccc(C(F)F)c(F)c2)c2ccc(C3CC3)c(=O)[nH]2)N1", "note": "(single isomer, unassigned) [Example 4-234]", "EC50": "3 to 10"}
{"smiles": "CCOc1ccc(C(C[C@H]2CCC(=O)N2)c2ccc(Cl)c(=O)[nH]2)cc1", "note": "(single isomer, unassigned) [Example 4-235]", "EC50": "3 to 10"}
{"smiles": "CCOc1ccc(C(C[C@H]2CCC(=O)N2)c2ccc(Cl)c(=O)[nH]2)cc1C(F)(F)F", "note": "(single isomer, unassigned) [Example 4-237]", "EC50": "0.5 to 3"}
{"smiles": "CCOc1ccc(C(C[C@H]2CCC(=O)N2)c2ccc(Cl)c(=O)[nH]2)cc1C", "note": "(single isomer, unassigned) [Example 4-239]", "EC50": "0.5 to 3"}
{"smiles": "CCOc1ccc(C(C[C@H]2CCC(=O)N2)c2ccc(Cl)c(=O)[nH]2)cc1C", "note": "(single isomer, unassigned) [Example 4-240]", "EC50": "3 to 10"}
{"smiles": "CCCc1ccc(C(C[C@H]2CCC(=O)N2)c2ccc(C(F)(F)F)cc2)[nH]c1=O", "note": "(single isomer, unassigned) [Example 4-242]", "EC50": "0.5 to 3"}
{"smiles": "CCCc1ccc(C(C[C@H]2CCC(=O)N2)c2ccc(C(F)(F)F)cc2)[nH]c1=O", "note": "(single isomer, unassigned) [Example 4-243]", "EC50": "3 to 10"}
{"smiles": "COc1ccc(C(C[C@H]2CCC(=O)N2)c2ccc(C(C)(C)C)cc2)[nH]c1=O", "note": "(single isomer, unassigned) [Example 4-244]", "EC50": "0.5 to 3"}
{"smiles": "COc1ccc(C(C[C@H]2CCC(=O)N2)c2ccc(C(C)(C)C)cc2)[nH]c1=O", "note": "(single isomer, unassigned) [Example 4-245]", "EC50": "3 to 10"}
{"smiles": "CC(C)(C)c1ccc(C(C[C@H]2CCC(=O)N2)c2ccc(OC(F)F)c(=O)[nH]2)cc1", "note": "(single isomer, unassigned) [Example 4-246]", "EC50": "0.5 to 3"}
{"smiles": "CC(C)(C)c1ccc(C(C[C@H]2CCC(=O)N2)c2ccc(OC(F)F)c(=O)[nH]2)cc1", "note": "(single isomer, unassigned) [Example 4-247]", "EC50": "3 to 10"}
